Measurements taken from ChEMBL document CHEMBL1146469, “Tasnemoxides A-C, new cytotoxic cyclic norsesterterpene peroxides from the Red Sea sponge Diacarnus erythraenus” (J Nat Prod, 2004).

How the values were obtained:
Type in all cases: functional, cell-based
P388 = assay: Cytotoxicity against mouse P388 cells by dilution assay
A549 = assay: Cytotoxicity against human A549 cells by dilution assay
HT-29 = assay: Cytotoxicity against human HT-29 cells by dilution assay

Measured: IC50

CC1=C(CCC(C)(O)/C=C/C[C@@]2(C)CC[C@H]([C@H](C)C(=O)O)OO2)C(C)(C)CCC1 (some centres undefined) [TASNEMOXIDE A]
> 1 µg/mL: P388 | A549 | HT-29

C=C(CCC1=C(C)CCCC1(C)C)C(O)CC[C@@]1(C)CC[C@H]([C@H](C)C(=O)O)OO1 (some centres undefined) [TASNEMOXIDE B]
> 1 µg/mL: P388 | A549 | HT-29

C=C(CCC[C@@]1(C)CC[C@H]([C@H](C)C(=O)OC)OO1)CCC1(O)C(=C)CCCC1(C)C (some centres undefined) [TASNEMOXIDE C]
> 1 µg/mL: P388 | A549 | HT-29
